Measured values published in patent US9868772B2 (INDIANA UNIVERSITY RESEARCH AND TECHNOLOGY CORPORATION, priority 2012, dated 2018).
Numbered stars: 1 amine (or outer) side, 2 acyl side, 3 side chain; on linkers, the order of the positions; unused ones are H or OH. Square brackets hold non-standard residues; d marks the D form. Side chains are listed from the residue outwards. Peptide text beside a SMILES is read from it. * marks the point of attachment. γGlu = O=C(O)[C@H](CCC(=O)[*:2])N[*:1]; Desaminotyrosyl = O=C(CCc1ccc(O)cc1)*; Palmitoyl = CCCCCCCCCCCCCCCC(=O)*

Key:
Assay in all cases: cAMP induction, firefly luciferase reporter assay in HEK293 cells co-transfected with receptor
Format in all cases: cell-based
Settings in all cases: Table 1, analogs of SEQ ID NO: 37
[1] = molecular target: T1, GLP-1 receptor (Homo sapiens, UniProt P43220)
T1 construct: expressed in transfected cells; host or cells: HEK293
T1 sequence (P43220 24-463): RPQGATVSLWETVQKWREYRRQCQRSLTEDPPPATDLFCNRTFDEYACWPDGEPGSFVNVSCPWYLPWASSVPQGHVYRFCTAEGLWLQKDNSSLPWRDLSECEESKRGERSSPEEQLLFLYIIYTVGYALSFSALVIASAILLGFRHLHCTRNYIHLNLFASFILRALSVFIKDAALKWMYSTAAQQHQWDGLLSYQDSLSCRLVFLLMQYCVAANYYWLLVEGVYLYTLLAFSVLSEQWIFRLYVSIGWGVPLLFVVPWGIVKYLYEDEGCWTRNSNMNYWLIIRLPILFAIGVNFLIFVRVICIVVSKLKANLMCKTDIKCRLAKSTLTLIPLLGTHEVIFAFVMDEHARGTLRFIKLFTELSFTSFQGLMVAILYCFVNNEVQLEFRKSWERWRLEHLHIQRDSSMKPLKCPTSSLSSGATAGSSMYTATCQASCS
Procedure: (§1) The ability of glucagon analogs to induce cAMP was measured in a firefly luciferase-based reporter assay. […] At the end of the incubation 100 microliters of LucLite luminescence substrate reagent (Perkin-Elmer, Wellesley, Mass.) were added to each well. […] Effective 50% concentrations were calculated by using Origin software (OriginLab, Northampton, Mass.

[2] = molecular target: T2, glucagon receptor (Homo sapiens, UniProt P47871)
T2 construct: expressed in transfected cells; host or cells: HEK293
T2 sequence (P47871 26-477): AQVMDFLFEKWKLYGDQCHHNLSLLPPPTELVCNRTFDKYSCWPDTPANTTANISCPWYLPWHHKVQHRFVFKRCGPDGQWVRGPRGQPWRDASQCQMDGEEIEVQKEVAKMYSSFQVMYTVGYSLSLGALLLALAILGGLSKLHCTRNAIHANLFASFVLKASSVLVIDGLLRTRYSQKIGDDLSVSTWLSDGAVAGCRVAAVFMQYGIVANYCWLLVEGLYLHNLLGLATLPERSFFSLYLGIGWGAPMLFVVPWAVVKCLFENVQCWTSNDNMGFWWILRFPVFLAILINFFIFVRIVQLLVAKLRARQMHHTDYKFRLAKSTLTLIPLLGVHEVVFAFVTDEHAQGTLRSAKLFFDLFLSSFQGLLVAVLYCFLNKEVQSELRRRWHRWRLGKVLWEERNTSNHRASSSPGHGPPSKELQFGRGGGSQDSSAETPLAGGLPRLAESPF
Procedure: as §1

[3] = molecular target: T3, GIP receptor (Homo sapiens, UniProt P48546)
T3 construct: expressed in transfected cells; host or cells: HEK293
T3 sequence (P48546 22-466): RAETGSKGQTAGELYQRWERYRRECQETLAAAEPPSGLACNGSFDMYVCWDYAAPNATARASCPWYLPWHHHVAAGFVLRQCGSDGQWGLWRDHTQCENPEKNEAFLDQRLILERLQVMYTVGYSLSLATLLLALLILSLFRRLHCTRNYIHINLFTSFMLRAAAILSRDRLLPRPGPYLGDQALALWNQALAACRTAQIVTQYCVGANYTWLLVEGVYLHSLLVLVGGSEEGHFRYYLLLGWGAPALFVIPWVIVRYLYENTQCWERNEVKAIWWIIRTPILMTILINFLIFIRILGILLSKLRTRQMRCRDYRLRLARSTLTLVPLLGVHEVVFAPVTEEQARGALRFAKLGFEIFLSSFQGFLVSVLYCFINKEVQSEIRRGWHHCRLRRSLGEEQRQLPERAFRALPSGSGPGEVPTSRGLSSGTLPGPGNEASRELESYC
Procedure: as §1

| SMILES | EC50 [1] [pM] | EC50 [2] [pM] | EC50 [3] [pM] |
| --- | --- | --- | --- |
| CCCCCCCCCCCCCCCC(=O)N[C@@H](CCC(=O)NCCCC[C@H](NC(=O)[C@H](CC(=O)O)NC(=O)[C@H](CO)NC(=O)[C@@H](NC(=O)[C@H](Cc1ccccc1)NC(=O)[C@@H](NC(=O)CNC(=O)[C@H](CCC(N)=O)NC(=O)C(C)(C)NC(=O)[C@@H](N)Cc1c[nH]cn1)[C@@H](C)O)[C@@H](C)O)C(=O)N[C@@H](CO)C(=O)N[C@@H](CCCCN)C(=O)N[C@@H](Cc1ccc(O)cc1)C(=O)N[C@@H](CC(C)C)C(=O)N[C@@H](CC(=O)O)C(=O)N[C@@H](CCC(=O)O)C(=O)N[C@@H](CCCNC(=N)N)C(=O)N[C@@H](C)C(=O)N[C@@H](C)C(=O)N[C@@H](CCC(N)=O)C(=O)N[C@@H](CC(=O)O)C(=O)N[C@@H](Cc1ccccc1)C(=O)N[C@H](C(=O)N[C@@H](CCC(N)=O)C(=O)N[C@@H](Cc1c[nH]c2ccccc12)C(=O)N[C@@H](CC(C)C)C(=O)N[C@@H](CC(C)C)C(=O)N[C@@H](CC(=O)O)C(=O)NCC(=O)NCC(=O)N1CCC[C@H]1C(=O)N[C@@H](CO)C(=O)N[C@@H](CO)C(=O)NCC(=O)N[C@@H](C)C(=O)N1CCC[C@H]1C(=O)N1CCC[C@H]1C(=O)N1CCC[C@H]1C(=O)N[C@@H](CO)C(N)=O)C(C)C)C(=O)O [compound 10] | 5 | 5 | – |
| CCCCCCCCCCCCCCCC(=O)N[C@@H](CCC(=O)NCCCC[C@H](NC(=O)[C@H](CC(=O)O)NC(=O)[C@H](CO)NC(=O)[C@@H](NC(=O)[C@H](Cc1ccccc1)NC(=O)[C@@H](NC(=O)CNC(=O)[C@H](CCC(N)=O)NC(=O)[C@H](C)NC(=O)CCc1ccc(O)cc1)[C@@H](C)O)[C@@H](C)O)C(=O)N[C@@H](CO)C(=O)N[C@@H](CCCCN)C(=O)N[C@@H](Cc1ccc(O)cc1)C(=O)N[C@@H](CC(C)C)C(=O)N[C@@H](CC(=O)O)C(=O)N[C@@H](CCC(=O)O)C(=O)N[C@@H](CCCNC(=N)N)C(=O)N[C@@H](C)C(=O)N[C@@H](C)C(=O)N[C@@H](CCC(N)=O)C(=O)N[C@@H](CC(=O)O)C(=O)N[C@@H](Cc1ccccc1)C(=O)N[C@H](C(=O)N[C@@H](CCC(N)=O)C(=O)N[C@@H](Cc1c[nH]c2ccccc12)C(=O)N[C@@H](CC(C)C)C(=O)N[C@@H](CC(C)C)C(=O)N[C@@H](CCC(=O)O)C(=O)NCC(=O)NCC(=O)N1CCC[C@H]1C(=O)N[C@@H](CO)C(=O)N[C@@H](CO)C(=O)NCC(=O)N[C@@H](C)C(=O)N1CCC[C@H]1C(=O)N1CCC[C@H]1C(=O)N1CCC[C@H]1C(=O)N[C@@H](CO)C(N)=O)C(C)C)C(=O)O [compound 11] (Desaminotyrosyl-AQGTFTSDK([γGlu-Palmitoyl])SKYLDERAAQDFVQWLLEGGPSSGAPPPS-NH2) | 2 | 16 | 2 |
| CCCCCCCCCCCCCCCC(=O)N[C@@H](CCC(=O)NCCCC[C@H](NC(=O)[C@H](CC(=O)O)NC(=O)[C@H](CO)NC(=O)[C@@H](NC(=O)[C@H](Cc1ccccc1)NC(=O)[C@@H](NC(=O)CNC(=O)[C@H](CCC(N)=O)NC(=O)[C@H](C)NC(=O)[C@@H](Cc1ccc(O)cc1)NC(C)=O)[C@@H](C)O)[C@@H](C)O)C(=O)N[C@@H](CO)C(=O)N[C@@H](CCCCN)C(=O)N[C@@H](Cc1ccc(O)cc1)C(=O)N[C@@H](CC(C)C)C(=O)N[C@@H](CC(=O)O)C(=O)N[C@@H](CCC(=O)O)C(=O)N[C@@H](CCCNC(=N)N)C(=O)N[C@@H](C)C(=O)N[C@@H](C)C(=O)N[C@@H](CCC(N)=O)C(=O)N[C@@H](CC(=O)O)C(=O)N[C@@H](Cc1ccccc1)C(=O)N[C@H](C(=O)N[C@@H](CCC(N)=O)C(=O)N[C@@H](Cc1c[nH]c2ccccc12)C(=O)N[C@@H](CC(C)C)C(=O)N[C@@H](CC(C)C)C(=O)N[C@@H](CCC(=O)O)C(=O)NCC(=O)NCC(=O)N1CCC[C@H]1C(=O)N[C@@H](CO)C(=O)N[C@@H](CO)C(=O)NCC(=O)N[C@@H](C)C(=O)N1CCC[C@H]1C(=O)N1CCC[C@H]1C(=O)N1CCC[C@H]1C(=O)N[C@@H](CO)C(N)=O)C(C)C)C(=O)O [compound 12] | 3 | 7 | 2 |
| CCCCCCCCCCCCCCCC(=O)N[C@@H](CCC(=O)NCCCC[C@H](NC(=O)[C@H](CC(=O)O)NC(=O)[C@H](CO)NC(=O)[C@@H](NC(=O)[C@H](Cc1ccccc1)NC(=O)[C@@H](NC(=O)CNC(=O)[C@H](CCC(N)=O)NC(=O)[C@H](C)NC(=O)[C@@H](Cc1c[nH]cn1)NC(C)=O)[C@@H](C)O)[C@@H](C)O)C(=O)N[C@@H](CO)C(=O)N[C@@H](CCCCN)C(=O)N[C@@H](Cc1ccc(O)cc1)C(=O)N[C@@H](CC(C)C)C(=O)N[C@@H](CC(=O)O)C(=O)N[C@@H](CCC(=O)O)C(=O)N[C@@H](CCCNC(=N)N)C(=O)N[C@@H](C)C(=O)N[C@@H](C)C(=O)N[C@@H](CCC(N)=O)C(=O)N[C@@H](CC(=O)O)C(=O)N[C@@H](Cc1ccccc1)C(=O)N[C@H](C(=O)N[C@@H](CCC(N)=O)C(=O)N[C@@H](Cc1c[nH]c2ccccc12)C(=O)N[C@@H](CC(C)C)C(=O)N[C@@H](CC(C)C)C(=O)N[C@@H](CCC(=O)O)C(=O)NCC(=O)NCC(=O)N1CCC[C@H]1C(=O)N[C@@H](CO)C(=O)N[C@@H](CO)C(=O)NCC(=O)N[C@@H](C)C(=O)N1CCC[C@H]1C(=O)N1CCC[C@H]1C(=O)N1CCC[C@H]1C(=O)N[C@@H](CO)C(N)=O)C(C)C)C(=O)O [compound 13] | 4 | 2 | 4 |
| CCCCCCCCCCCCCCCC(=O)N[C@@H](CCC(=O)NCCCC[C@H](NC(=O)[C@H](CC(=O)O)NC(=O)[C@H](CO)NC(=O)[C@@H](NC(=O)[C@H](Cc1ccccc1)NC(=O)[C@@H](NC(=O)CNC(=O)[C@H](CCC(N)=O)NC(=O)CNC(=O)[C@@H](Cc1ccc(O)cc1)NC(C)=O)[C@@H](C)O)[C@@H](C)O)C(=O)N[C@@H](CO)C(=O)N[C@@H](CCCCN)C(=O)N[C@@H](Cc1ccc(O)cc1)C(=O)N[C@@H](CC(C)C)C(=O)N[C@@H](CC(=O)O)C(=O)N[C@@H](CCC(=O)O)C(=O)N[C@@H](CCCNC(=N)N)C(=O)N[C@@H](C)C(=O)N[C@@H](C)C(=O)N[C@@H](CCC(N)=O)C(=O)N[C@@H](CC(=O)O)C(=O)N[C@@H](Cc1ccccc1)C(=O)N[C@H](C(=O)N[C@@H](CCC(N)=O)C(=O)N[C@@H](Cc1c[nH]c2ccccc12)C(=O)N[C@@H](CC(C)C)C(=O)N[C@@H](CC(C)C)C(=O)N[C@@H](CCC(=O)O)C(=O)NCC(=O)NCC(=O)N1CCC[C@H]1C(=O)N[C@@H](CO)C(=O)N[C@@H](CO)C(=O)NCC(=O)N[C@@H](C)C(=O)N1CCC[C@H]1C(=O)N1CCC[C@H]1C(=O)N1CCC[C@H]1C(=O)N[C@@H](CO)C(N)=O)C(C)C)C(=O)O [compound 14] (Ac-[dY]GQGTFTSDK([γGlu-Palmitoyl])SKYLDERAAQDFVQWLLEGGPSSGAPPPS-NH2) | 22 | 5 | 5 |
| CCCCCCCCCCCCCCCC(=O)N[C@@H](CCC(=O)NCCCC[C@H](NC(=O)[C@H](CC(=O)O)NC(=O)[C@H](CO)NC(=O)[C@@H](NC(=O)[C@H](Cc1ccccc1)NC(=O)[C@@H](NC(=O)CNC(=O)[C@H](CCC(N)=O)NC(=O)[C@H](C)NC(=O)[C@H](N)Cc1ccc(O)cc1)[C@@H](C)O)[C@@H](C)O)C(=O)N[C@@H](CO)C(=O)N[C@@H](CCCCN)C(=O)N[C@@H](Cc1ccc(O)cc1)C(=O)N[C@@H](CC(C)C)C(=O)N[C@@H](CC(=O)O)C(=O)N[C@@H](CCC(=O)O)C(=O)N[C@@H](CCCNC(=N)N)C(=O)N[C@@H](C)C(=O)N[C@@H](C)C(=O)N[C@@H](CCC(N)=O)C(=O)N[C@@H](CC(=O)O)C(=O)N[C@@H](Cc1ccccc1)C(=O)N[C@H](C(=O)N[C@@H](CCC(N)=O)C(=O)N[C@@H](Cc1c[nH]c2ccccc12)C(=O)N[C@@H](CC(C)C)C(=O)N[C@@H](CC(C)C)C(=O)N[C@@H](CCC(=O)O)C(=O)NCC(=O)NCC(=O)N1CCC[C@H]1C(=O)N[C@@H](CO)C(=O)N[C@@H](CO)C(=O)NCC(=O)N[C@@H](C)C(=O)N1CCC[C@H]1C(=O)N1CCC[C@H]1C(=O)N1CCC[C@H]1C(=O)N[C@@H](CO)C(N)=O)C(C)C)C(=O)O [compound 15] | 4 | 50 | 8 |
| CCCCCCCCCCCCCCCC(=O)N[C@@H](CCC(=O)NCCCC[C@H](NC(=O)[C@H](CC(=O)O)NC(=O)[C@H](CO)NC(=O)[C@@H](NC(=O)[C@H](Cc1ccccc1)NC(=O)[C@@H](NC(=O)CNC(=O)[C@H](CCC(N)=O)NC(=O)[C@H](C)NC(=O)[C@H](N)Cc1c[nH]cn1)[C@@H](C)O)[C@@H](C)O)C(=O)N[C@@H](CO)C(=O)N[C@@H](CCCCN)C(=O)N[C@@H](Cc1ccc(O)cc1)C(=O)N[C@@H](CC(C)C)C(=O)N[C@@H](CC(=O)O)C(=O)N[C@@H](CCC(=O)O)C(=O)N[C@@H](CCCNC(=N)N)C(=O)N[C@@H](C)C(=O)N[C@@H](C)C(=O)N[C@@H](CCC(N)=O)C(=O)N[C@@H](CC(=O)O)C(=O)N[C@@H](Cc1ccccc1)C(=O)N[C@H](C(=O)N[C@@H](CCC(N)=O)C(=O)N[C@@H](Cc1c[nH]c2ccccc12)C(=O)N[C@@H](CC(C)C)C(=O)N[C@@H](CC(C)C)C(=O)N[C@@H](CCC(=O)O)C(=O)NCC(=O)NCC(=O)N1CCC[C@H]1C(=O)N[C@@H](CO)C(=O)N[C@@H](CO)C(=O)NCC(=O)N[C@@H](C)C(=O)N1CCC[C@H]1C(=O)N1CCC[C@H]1C(=O)N1CCC[C@H]1C(=O)N[C@@H](CO)C(N)=O)C(C)C)C(=O)O [compound 16] | 2 | 10 | 10 |
